This is an account of results in US20250163119A1, “COMPOUNDS FOR THE TREATMENT OF DIABETES OR OBESITY” (Eli Lilly and Company, priority 2023, published 2025).

By EC50 is commonly meant the concentration needed to bring the measured effect to its halfway point.

For one test, the target named is T1, human CRHR2 (Homo sapiens, UniProt Q13324).
T1 construct: expressed in transfected cells
T1 sequence (Q13324 1-438 isoform Q13324-2): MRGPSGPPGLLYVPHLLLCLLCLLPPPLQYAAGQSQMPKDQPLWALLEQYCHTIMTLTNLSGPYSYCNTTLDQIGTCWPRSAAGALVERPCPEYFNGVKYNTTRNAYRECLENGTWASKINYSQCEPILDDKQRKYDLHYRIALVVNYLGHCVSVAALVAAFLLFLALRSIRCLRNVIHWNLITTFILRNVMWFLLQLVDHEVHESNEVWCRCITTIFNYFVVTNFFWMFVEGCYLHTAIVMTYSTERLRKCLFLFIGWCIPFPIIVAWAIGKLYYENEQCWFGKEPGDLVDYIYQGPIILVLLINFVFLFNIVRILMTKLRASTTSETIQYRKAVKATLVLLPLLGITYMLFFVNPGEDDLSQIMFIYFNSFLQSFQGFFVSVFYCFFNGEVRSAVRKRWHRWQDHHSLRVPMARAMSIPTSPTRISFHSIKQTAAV
In words: Human CRHR2 cAMP assay (HTRF) in HEK293 cells stably expressing human CRHR2. The test is classed as cell-based. The settings on record: HEK293 cells overexpressing human CRHR2; relative EC50, maximum 10 nM human UCN2; mean ± SE; read-out: hCRHR2 cAMP EC50 (pM, ± SE). Put shortly:
(§1)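 HEK293 cells stably expressing human CRHR1 (25,000/well) or CRHR2b (5,000/well) were treated with peptides in MEM with 0.1% casein, 5 mM HEPES pH 7.4 and 0.25 mM IBMX. Incubation was 1 h at 37 °C for CRHR1 and 30 min at room temperature for CRHR2. cAMP was measured by HTRF (665/620 nm) against a per-experiment cAMP standard curve.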
(In general: Cyclic AMP is a second messenger, typically raised through Gs and lowered through Gi signalling.)

The next test addresses T2, human CRHR1 (Homo sapiens, UniProt P34998).
T2 construct: expressed in transfected cells
T2 sequence (P34998 24-415): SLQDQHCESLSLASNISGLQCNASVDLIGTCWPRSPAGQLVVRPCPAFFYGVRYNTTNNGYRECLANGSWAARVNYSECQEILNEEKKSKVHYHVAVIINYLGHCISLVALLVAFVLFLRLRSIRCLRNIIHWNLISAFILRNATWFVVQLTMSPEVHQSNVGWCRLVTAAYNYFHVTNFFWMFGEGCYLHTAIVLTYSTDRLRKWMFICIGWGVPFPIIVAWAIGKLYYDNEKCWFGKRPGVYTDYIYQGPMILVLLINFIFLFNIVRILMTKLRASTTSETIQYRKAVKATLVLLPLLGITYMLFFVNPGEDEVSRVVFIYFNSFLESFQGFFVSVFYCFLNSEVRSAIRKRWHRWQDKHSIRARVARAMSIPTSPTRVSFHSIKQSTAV
In words: Human CRHR1 cAMP assay (HTRF) in HEK293 cells stably expressing human CRHR1. In kind it is cell-based. The settings on record: HEK293 cells overexpressing human CRHR1; relative EC50, maximum 66 nM human UCN1; mean ± SE; read-out: hCRHR1 cAMP EC50 (pM, ± SE). Put shortly: as §1

*1 amine or outer side, *2 acyl side, *3 side chain or, on linkers, in order; H or OH if unused. Where a SMILES comes first, the peptide text is derived from it. Side-chain parts run from the residue outwards. [ ]: non-standard residue; d: D form. The star is where a group is joined. C20 diacid = O=C(O)CCCCCCCCCCCCCCCCCCC(=O)*; C18 diacid = O=C(O)CCCCCCCCCCCCCCCCC(=O)*; γGlu = O=C(O)[C@H](CCC(=O)[*:2])N[*:1]; εLys = N[C@@H](CCCCN[*:1])C(=O)[*:2]; αMeL = CC(C)C[C@](C)(N)C(=O)O; AEEA = NCCOCCOCC(=O)O; Aib = CC(C)(N)C(=O)O; Ahx = NCCCCCC(=O)O; βAla = NCCC(=O)O

With `CC[C@H](C)[C@H](NC(C)=O)C(=O)N[C@H](C(=O)N[C@H](C(=O)N[C@@H](CO)C(=O)N[C@@](C)(CC(C)C)C(=O)N[C@@H](CC(=O)O)C(=O)N[C@@H](C(=O)N1CCC[C@H]1C(=O)N[C@H](C(=O)NCC(=O)N[C@@](C)(CC(C)C)C(=O)N[C@@H](CC(C)C)C(=O)N[C@@H](CCC(N)=O)C(=O)N[C@H](C(=O)N[C@@H](CCCCN)C(=O)N[C@@H](CC(C)C)C(=O)N[C@@H](CCC(=O)O)C(=O)N[C@@H](CCC(N)=O)C(=O)N[C@@H](CCC(=O)O)C(=O)N[C@@H](CCCNC(=N)N)C(=O)N[C@@H](C)C(=O)N[C@@H](CCC(=O)O)C(=O)N[C@@H](CCCCN)C(=O)N[C@@H](C)C(=O)N[C@@H](CCCNC(=N)N)C(=O)N[C@@H](CCC(N)=O)C(=O)N[C@@H](CCC(N)=O)C(=O)N[C@@H](C)C(=O)N[C@@H](CCCCNC(=O)COCCOCCNC(=O)CC[C@H](NC(=O)CC[C@H](NC(=O)CCCCCCCCCCCCCCCCCCC(=O)O)C(=O)O)C(=O)O)C(=O)N[C@@H](CCC(=O)O)C(=O)N[C@@H](CC(N)=O)C(=O)N[C@H](C(=O)N[C@@H](CCC(=O)O)C(=O)N[C@H](C(=O)N[C@@H](CC(C)C)C(=O)N[C@@H](C)C(=O)N[C@@H](CCC(N)=O)C(=O)N[C@H](C(N)=O)C(C)C)[C@@H](C)CC)[C@@H](C)O)[C@@H](C)CC)[C@@H](C)O)C(C)C)[C@@H](C)O)C(C)C` [SEQ ID NO: 44, Ac-IVTS αMeL D (D-Val) PTG αMeL LQIKLEQERAEKARQQAK((2-[2-(2-Amino-ethoxy)-ethoxy]-acetyl)-(γE)2-CO-(CH2)18-CO2H)ENTEILAQV-NH2] (Ac-IVTS[αMeL]D[dV]PTG[αMeL]LQIKLEQERAEKARQQAK([AEEA-γGlu-γGlu-C20 diacid])ENTEILAQV-NH2), the figures for the EC50 at human CRHR2 and at human CRHR1 were 5.4 ± 0.5 pM and over 1e+07 pM, respectively.

In the case of “Ac-GSPSIVTS[αMeL]DVPT[Aib][αMeL]LQKILEQERAEKARQQAK([AEEA-Pro-Lys-Glu-γGlu-C20 diacid])EAAEILAQV-NH2 [SEQ ID NO: 3, Ac-GSPSIVTS αMeL DVPT Aib αMeL LQKILEQERAEKARQQAK((2-[2-(2-Amino-ethoxy)-ethoxy]-acetyl)-PKE-γE-CO-(CH2)18-CO2H)EAAEILAQV-NH2]”, the results for the EC50 at human CRHR2 and on human CRHR1 were 18.3 ± 2.1 pM and over 1e+07 pM, respectively.

For the compound “Ac-GSPSIVTS[αMeL]DVPT[Aib][αMeL]LQKILEQERAEKARQQAK([Ahx-AEEA-γGlu-C20 diacid])EAAEILAQV-NH2 [SEQ ID NO: 4, Ac-GSPSIVTS αMeL DVPT Aib αMeL LQKILEQERAEKARQQAK(Ahx-(2-[2-(2-Amino-ethoxy)-ethoxy]-acetyl)-γE-CO-(CH2)18-CO2H)EAAEILAQV-NH2]”, the EC50 at human CRHR2 is 20.3 ± 2.9 pM; at human CRHR1, over 1e+07 pM.

Consider “Ac-GSPSIVTS[αMeL]DVPT[Aib][αMeL]LQKILEQERAEKARQQAK([Gly-βAla-βAla-βAla-βAla-γGlu-C20 diacid])EAAEILAQV-NH2 [SEQ ID NO: 8, Ac-GSPSIVTS αMeL DVPT Aib αMeL LQKILEQERAEKARQQAK(G-(βA)4-γE-CO-(CH2)18-CO2H)EAAEILAQV-NH2]”, for which the EC50 on human CRHR2 was 11 ± 0.9 pM; at human CRHR1, over 1e+07 pM.

Turning to “Ac-GSPSIVTS[αMeL]DVPT[Aib][αMeL]LQKILEQERAEKARQQAK([Gly-βAla-βAla-βAla-γGlu-C20 diacid])EAAEILAQV-NH2 [SEQ ID NO: 7, Ac-GSPSIVTS αMeL DVPT Aib αMeL LQKILEQERAEKARQQAK(G-(βA)3-γE-CO-(CH2)18-CO2H)EAAEILAQV-NH2]”, the figures for the EC50 at human CRHR2 and at human CRHR1 were 10.6 ± 1.4 pM and over 1e+07 pM, respectively.

On to “Ac-GSPSIVTS[αMeL]DVPT[Aib][αMeL]LQKILEQERAEKARQQAK([βAla-Ser-βAla-Ser-γGlu-C20 diacid])EAAEILAQV-NH2 [SEQ ID NO: 10, Ac-GSPSIVTS αMeL DVPT Aib αMeL LQKILEQERAEKARQQAK((βA)-S-(βA)-S-γE-CO-(CH2)18-CO2H)EAAEILAQV-NH2]”, for which the figures for the EC50 on human CRHR2 and on human CRHR1 were 10.1 ± 1.1 pM and over 1e+07 pM, respectively.

With “Ac-GSPSIVTS[αMeL]DVPT[Aib][αMeL]LQKILEQERAEKARQQAK([γGlu-AEEA-AEEA-εLys-C20 diacid])EAAEILAQV-NH2 [SEQ ID NO: 17, Ac-GSPSIVTS αMeL DVPT Aib αMeL LQKILEQERAEKARQQAK(γE-(2-[2-(2-Amino-ethoxy)-ethoxy]-acetyl)2-ϵK-CO-(CH2)18-CO2H)EAAEILAQV-NH2]”, the EC50 on human CRHR2 is 9.5 ± 0.9 pM; at human CRHR1, over 1e+07 pM.

As to “Ac-GSPSIVTS[αMeL]DVPT[Aib][αMeL]LQKILEQERAEKARQQAK([γGlu-AEEA-Ahx-C20 diacid])EAAEILAQV-NH2 [SEQ ID NO: 5, Ac-GSPSIVTS αMeL DVPT Aib αMeL LQKILEQERAEKARQQAK(γE-(2-[2-(2-Amino-ethoxy)-ethoxy]-acetyl)-Ahx-CO-(CH2)18-CO2H)EAAEILAQV-NH2]”, the values for the EC50 on human CRHR2 and on human CRHR1 were 10.7 ± 0.8 pM and over 1e+07 pM, respectively.

Consider “Ac-GSPSIVTS[αMeL]DVPT[Aib][αMeL]LQKILEQERAEKARQQAK([γGlu-AEEA-εLys-C18 diacid])EAAEILAQV-NH2 [SEQ ID NO: 21, Ac-GSPSIVTS αMeL DVPT Aib αMeL LQKILEQERAEKARQQAK(γE-(2-[2-(2-Amino-ethoxy)-ethoxy]-acetyl)-ϵK-CO-(CH2)16-CO2H)EAAEILAQV-NH2]”, for which the values for the EC50 on human CRHR2 and on human CRHR1 were 16.3 ± 1.3 pM and over 1e+07 pM, respectively.

With “Ac-GSPSIVTS[αMeL]DVPT[Aib][αMeL]LQKILEQERAEKARQQAK([γGlu-Pro-Lys-Glu-Ahx-C20 diacid])EAAEILAQV-NH2 [SEQ ID NO: 11, Ac-GSPSIVTS αMeL DVPT Aib αMeL LQKILEQERAEKARQQAK(γE-PKE-Ahx-CO-(CH2)18-CO2H)EAAEILAQV-NH2]”, the EC50 on human CRHR2 is 8.3 ± 1.4 pM; at human CRHR1 it was over 1e+07 pM.

Consider “Ac-GSPSIVTS[αMeL]DVPT[Aib][αMeL]LQKILEQERAEKARQQAK([γGlu-Pro-Lys-Glu-εLys-C20 diacid])EAAEILAQV-NH2 [SEQ ID NO: 13, Ac-GSPSIVTS αMeL DVPT Aib αMeL LQKILEQERAEKARQQAK(γE-PKE-ϵK-CO-(CH2)18-CO2H)EAAEILAQV-NH2]”, for which the figures for the EC50 on human CRHR2 and at human CRHR1 were 7.9 ± 0.3 pM and over 1e+07 pM, respectively.

On to “Ac-GSPSIVTS[αMeL]DVPT[Aib][αMeL]LQKILEQERAEKARQQAK([γGlu-Pro-Pro-Pro-εLys-C20 diacid])EAAEILAQV-NH2 [SEQ ID NO: 14, Ac-GSPSIVTS αMeL DVPT Aib αMeL LQKILEQERAEKARQQAK(γE-PPP-EK-CO-(CH2)18-CO2H)EAAEILAQV-NH2]”, for which the EC50 at human CRHR2 was 8.3 ± 0.5 pM; at human CRHR1 it was over 1e+07 pM.

With “Ac-GSPSIVTS[αMeL]DVPT[Aib][αMeL]LQKILEQERAEKARQQAK([γGlu-εLys-AEEA-εLys-C20 diacid])EAAEILAQV-NH2 [SEQ ID NO: 19, Ac-GSPSIVTS αMeL DVPT Aib αMeL LQKILEQERAEKARQQAK(γE-EK-(2-[2-(2-Amino-ethoxy)-ethoxy]-acetyl)-ϵK-CO-(CH2)18-CO2H)EAAEILAQV-NH2]”, the EC50 on human CRHR2 is 11.1 ± 0.5 pM; at human CRHR1 it was over 1e+07 pM.

For the compound “Ac-GSPSIVTS[αMeL]DVPT[Aib][αMeL]LQKILEQERAEKARQQAK([γGlu-εLys-γGlu-εLys-C20 diacid])EAAEILAQV-NH2 [SEQ ID NO: 18, Ac-GSPSIVTS αMeL DVPT Aib αMeL LQKILEQERAEKARQQAK(γE-ϵK-γE-ϵK-CO-(CH2)18-CO2H)EAAEILAQV-NH2]”, the EC50 is 10.9 ± 1.3 pM at human CRHR2 and over 1e+07 pM at human CRHR1.

Consider “Ac-GSPSIVTS[αMeL]DVPT[Aib][αMeL]LQKILEQERAEKARQQAKEAAEILAQV-NH2 [SEQ ID NO: 20]”, for which the EC50 on human CRHR2 was 15.3 ± 1.4 pM; at human CRHR1, over 1e+07 pM.
